SMILES strings stand for the structures. Where a name gives a salt, the structure may show the parent alone.

In one experiment the target is T1, CHK1 (kinase domain) (Homo sapiens, UniProt O14757).
T1 construct: a solution containing 1 nM of CHK1 (kinase domain)
T1 sequence (O14757 9-265 limits assumed): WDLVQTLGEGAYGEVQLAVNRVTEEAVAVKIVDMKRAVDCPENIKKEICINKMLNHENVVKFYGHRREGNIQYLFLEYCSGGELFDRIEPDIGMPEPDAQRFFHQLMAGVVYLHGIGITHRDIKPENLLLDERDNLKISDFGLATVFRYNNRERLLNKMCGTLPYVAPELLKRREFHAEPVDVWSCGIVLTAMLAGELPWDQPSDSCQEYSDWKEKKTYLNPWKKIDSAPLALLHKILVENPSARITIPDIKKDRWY
Kind of experiment: CHK1 Ki determination, spectrophotometric coupled (pyruvate kinase/lactate dehydrogenase) assay. The following applies: CHK-1 kinase domain; 150 uM ATP, 125 uM Syntide 2. It counts as biochemical. The procedure:
After 15 min pre-incubation, the enzymatic reaction was initiated by the simultaneous addition of Syntide 2 peptide (125 uM, final concentration) and ATP (150 uM, final concentration). The kinase-catalyzed production of ADP from ATP that accompanied phosphoryl transfer to the substrate Syntide 2 was coupled to the oxidation of NADH through the activities of pyruvate kinase and lactate dehydrogenase. NADH conversion to NAD^+ was monitored by the decrease in absorbance at 340 nm (ε=6.22 cm^−1 mM^−1) using a microplate reader from Molecular Devices Spectormax Plus (Sunnyvale, Calif.) or BMG LABTECH Inc (Offenburg, Germany).
The inhibition of CHK1 was analyzed by fitting the data to the following equation to determine Kiapp:
[formula] where [E]o and [I]o are the active enzyme and inhibitor concentration, respectively; Ki is the inhibition binding constant and Km the Michaelis-Menten constant for ATP; Vi and Vo are the rates of substrate oxidation in the presence of and in the absence of inhibitor, respectively. EC50 Determination (Cellular Assay)
Under the “Ki” column, data entries in the format of “%” are percent inhibition data where no Ki data is available. Data entry under the “EC50” column with an * are data obtained using Mia Paca-2 cells rather than HeLa cells. Data is not available where noted as n/a.
What is called Ki is the dissociation constant of the complex between target and ligand, obtained from inhibition or displacement. In turn, `Cc1cn2c(-c3cncc(N[C@@H]4CCCN[C@H]4C)n3)cnc2s1` [Example 133, 6-(2-methylimidazo[2,1-b][1,3]thiazol-5-yl)-N-[(2S,3R)-2-methylpiperidin-3-yl]pyrazin-2-amine] registered a Ki of 21.4 nM.
`C[C@H]1NCCC[C@H]1Nc1cncc(-c2cnc3ccc(F)cn23)n1` [Example 164, 6-(6-fluoroimidazo[1,2-a]pyridin-3-yl)-N-[(2R,3R)-2-methylpiperidin-3-yl]pyrazin-2-amine] gave a Ki of 18.4 nM.
Same read-out and setting: under `C[C@H]1CC[C@@H](Nc2cncc(-c3cnc4cccnn34)n2)CN1` [Example 83, 6-imidazo[1,2-b]pyridazin-3-yl-N-[(3R,6S)-6-methylpiperidin-3-yl]pyrazin-2-amine, acetate salt] stands 1000 nM; under `c1ccc2c(c1)ncn2-c1cncc(NC2CCNC2)n1` (stereo not shown) [Example 208, 6-(1H-benzimidazol-1-yl)-N-(pyrrolidin-3-yl)pyrazin-2-amine], 195 nM; under `COc1ccn2c(-c3cncc(N[C@H]4CNC[C@H]4C4CCCC4)n3)cnc2c1` [Example 210, N-[(3R,4R)-4-cyclopentylpyrrolidin-3-yl]-6-(7-methoxyimidazo[1,2-a]pyridin-3-yl)pyrazin-2-amine], 2.85 nM.
Same read-out and setting: the result for `N#Cc1ccc2ncc(-c3cncc(N[C@H]4CNC[C@H]4C4CC4)n3)n2c1` [Example 263, 3-(6-{[(3R,4R)-4-cyclopropylpyrrolidin-3-yl]amino}pyrazin-2-yl)imidazo[1,2-a]pyridine-6-carbonitrile] reads 374 nM; that for `C[C@@H]1CC[C@@H](Nc2cncc(-c3cnc4cccnn34)n2)CN1` [Example 84, 6-imidazo[1,2-b]pyridazin-3-yl-N-[(3R,6R)-6-methylpiperidin-3-yl]pyrazin-2-amine, acetate salt], 1000 nM; that for `F[C@@H]1CNC[C@H]1Nc1cncc(-c2cnc3cccnn23)n1` [Example 82, N-[(3R,4R)-4-fluoropyrrolidin-3-yl]-6-imidazo[1,2-b]pyridazin-3-ylpyrazin-2-amine], 1000 nM.
As for `C[C@@H]1NCCC[C@H]1Nc1cncc(-c2cnc3ccc(F)cn23)n1` [Example 95, 6-(6-fluoroimidazo[1,2-a]pyridin-3-yl)-N-[(2S,3R)-2-methylpiperidin-3-yl]pyrazin-2-amine], the Ki stood at 37.5 nM.
`CCOc1cc2ncn(-c3cncc(N[C@H]4CNCC[C@@H]4OC)n3)c2cn1` [Example 298, [6-(6-Ethoxy-imidazo[4,5-c]pyridin-3-yl)-pyrazin-2-yl]-((3S,4S)-4-methoxy-piperidin-3-yl)-amine] gave a Ki of 5.27 nM.
Same read-out and setting: the result for `c1cc2c(-c3cncc(N[C@@H]4CCCNC4)n3)cnn2cn1` [Example 299, (R)-Piperidin-3-yl-(6-pyrazolo[1,5-c]pyrimidin-3-yl-pyrazin-2-yl)-amine] reads 4.11 nM; that for `F[C@@H]1CNC[C@@H]1Nc1cncc(-c2cnn3ccccc23)n1` (relative stereo) [Example 45, Cis N-[4-fluoropyrrolidin-3-yl]-6-pyrazolo [1,5-a]pyridin-3-ylpyrazin-2-amine], 585 nM; that for `CCOc1cc2ncn(-c3cncc(N[C@H]4CN[C@H](COC)C4)n3)c2cn1` [Example 297, [6-(6-Ethoxy-imidazo[4,5-c]pyridin-3-yl)-pyrazin-2-yl]-((3R,5S)-5-methoxymethyl-pyrrolidin-3-yl)-amine], 105 nM.
Still for that read-out and setting: the result for `c1cnn2c(-c3cncc(NC4CCCCNC4)n3)cnc2c1` (stereo not shown) [Example 80, N-(6-imidazo[1,2-b]pyridazin-3-ylpyrazin-2-yl)azepan-3-amine, acetate salt] reads 1000 nM; that for `F[C@@H]1CNC[C@@H]1Nc1cncc(-c2cnc3cccnn23)n1` [Example 81, N-[(3S,4R)-4-fluoropyrrolidin-3-yl]-6-imidazo[1,2-b]pyridazin-3-ylpyrazin-2-amine, acetate salt], 1000 nM.

The experiment is the same for the next values; noted with them: CHK-1 kinase domain; inhibitor concentration not given.
As for `Cc1ncc(-c2cncc(N[C@H]3CNC[C@@H]3F)n2)n1C` [Example 77, 6-(1,2-dimethyl-1H-imidazol-5-yl)-N-[(3S,4S)-4-fluoropyrrolidin-3-yl]pyrazin-2-amine], the “percent inhibition (where no Ki data is available)” value came out at 0%.
In the case of `Cc1ncc(-c2cncc(N[C@@H]3CC[C@H](C)NC3)n2)n1C` [Example 70, 6-(1,2-dimethyl-1H-imidazol-5-yl)-N-[(3R,6S)-6-methylpiperidin-3-yl]pyrazin-2-amine], the “percent inhibition (where no Ki data is available)” value came out at 0%.
As for `Cc1cccc2ncc(-c3cncc(N[C@@H]4CCNC4)n3)n12` [Example 58, 6-(5-Methylimidazo[1,2-a]pyridin-3-yl)-N-[(3R)-pyrrolidin-3-yl]pyrazin-2-amine], the “percent inhibition (where no Ki data is available)” value was determined as 0%.
Still for that read-out and setting: the result for `Cc1ncc(-c2cncc(N[C@@H]3CC[C@@H](C)NC3)n2)n1Cc1ccccc1` [Example 68, 6-(1-benzyl-2-methyl-1H-imidazol-5-yl)-N-[(3R,6R)-6-methylpiperidin-3-yl]pyrazin-2-amine] reads 0%; that for `Cc1ncc(-c2cncc(N[C@@H]3CNC[C@@H]3F)n2)n1C` [Example 76, 6-(1,2-dimethyl-1H-imidazol-5-yl)-N-[(3R,4S)-4-fluoropyrrolidin-3-yl]pyrazin-2-amine], 1.6%^; that for `Cc1ncc(-c2cncc(NC3CCCCNC3)n2)n1Cc1ccccc1` (stereo not shown) [Example 74, N-[6-(1-benzyl-2-methyl-1H-imidazol-5-yl)pyrazin-2-yl]azepan-3-amine], 5.8%^.
As for `Cc1cn2c(-c3cncc(N[C@H]4CCCN[C@@H]4C)n3)cnc2s1` [Example 177, 6-(2-methylimidazo[2,1-b][1,3]thiazol-5-yl)-N-[(2R,3S)-2-methylpiperidin-3-yl]pyrazin-2-amine], the “percent inhibition (where no Ki data is available)” value was determined as 49.1%^.
Same read-out and setting: the result for `Cc1ncc(-c2cncc(N[C@@H]3CC[C@@H](C)NC3)n2)n1C` [Example 71, 6-(1,2-dimethyl-1H-imidazol-5-yl)-N-[(3R,6R)-6-methylpiperidin-3-yl]pyrazin-2-amine] reads 0%; that for `Cc1ncc(-c2cncc(N[C@@H]3CCNC3)n2)n1Cc1ccccc1` [Example 75, 6-(1-benzyl-2-methyl-1H-imidazol-5-yl)-N-[(3R)-pyrrolidin-3-yl]pyrazin-2-amine], 6.7%^.
Same read-out and setting: the result for `c1ccn2c(-c3cncc(N[C@@H]4CCCNC4)n3)nnc2c1` [Example 8, N-[(3R)-piperidin-3-yl]-6-[1,2,4]triazolo[4,3-a]pyridin-3-ylpyrazin-2-amine] reads 16.7%^.
Take `c1cc2ncn(-c3cncc(N[C@@H]4CCNC4)n3)c2cc1OCC1CC1` [Example 220, 6-[6-(cyclopropylmethoxy)-1H-benzimidazol-1-yl]-N-[(3R)-pyrrolidin-3-yl]pyrazin-2-amine]: the “percent inhibition (where no Ki data is available)” value turned out to be 17.9%^.
Take `c1ccc2c(c1)ncn2-c1cncc(N[C@H]2CCCNC2)n1` [Example 63, 6-(1H-benzimidazol-1-yl)-N-[(3S)-piperidin-3-yl]pyrazin-2-amine]: the “percent inhibition (where no Ki data is available)” value stood at 35.5%^.
With `FC[C@@H]1CNC[C@@H]1Nc1cncc(-c2cnc3sccn23)n1` [Example 182, N-[(3R,4R)-4-(fluoromethyl)pyrrolidin-3-yl]-6-(imidazo[2,1-b][1,3]thiazol-5-yl)pyrazin-2-amine], the “percent inhibition (where no Ki data is available)” value came to 98.9%^.
On the same count and under the same terms, under `Cc1ncc(-c2cncc(NC3CCCCNC3)n2)n1C` (stereo not shown) [Example 69, N-[6-(1,2-dimethyl-1H-imidazol-5-yl)pyrazin-2-yl]azepan-3-amine] stands 0.60%^; under `Cc1cccn2c(-c3cncc(N[C@@H]4CCCNC4)n3)cnc12` [Example 207, 6-(8-methylimidazo[1,2-a]pyridin-3-yl)-N-[(3R)-piperidin-3-yl]pyrazin-2-amine], 21%; under `Cc1ncc(-c2cncc(N[C@@H]3CCCNC3)n2)n1Cc1ccccc1` [Example 72, 6-(1-benzyl-2-methyl-1H-imidazol-5-yl)-N-[(3R)-piperidin-3-yl]pyrazin-2-amine], 1.4%^.
The same measure, in the same setting: the result for `Cc1nc2ccccn2c1-c1cncc(N[C@@H]2CCCNC2)n1` [Example 153, 6-(2-methylimidazo[1,2-a]pyridin-3-yl)-N-[(3R)-piperidin-3-yl]pyrazin-2-amine] reads 2.2%^; that for `C[C@@H]1NCCC[C@H]1Nc1cncc(-c2cnc3ccccn23)n1` [Example 131, 6-imidazo[1,2-a]pyridin-3-yl-N-[(2S,3R)-2-methylpiperidin-3-yl]pyrazin-2-amine], 0%; that for `Cc1ncc(-c2cncc(N[C@@H]3CCNC3)n2)n1C` [Example 73, 6-(1,2-dimethyl-1H-imidazol-5-yl)-N-[(3R)-pyrrolidin-3-yl]pyrazin-2-amine], 0%.
